Three cell lines from the supplement of paper PMC10307832 can be followed below.

What all share (test): relative viability (nuclei count vs DMSO), 5 days (fraction); higher = more cells survive
Compound in the experiment “CAP-232 + Bortezomib”: C[C@H]([C@@H](C(=O)N)NC(=O)[C@@H]1CSSC[C@@H](C(=O)N[C@H](C(=O)N[C@@H](C(=O)N[C@H](C(=O)N1)CCCCN)CC2=CNC3=CC=CC=C32)CC4=CC=C(C=C4)O)NC(=O)[C@@H](CC5=CC=CC=C5)N)O [CAP-232] + CC(C)C[C@H](NC(=O)[C@H](Cc1ccccc1)NC(=O)c1cnccn1)B(O)O [Bortezomib] (partner 0.002 µM)
The method in brief: (§1)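 Cells from lung cancer lines were seeded into 1536-well plates and, one day later, dosed by pin tool. Treatments were either a single drug or a fixed dose of an anchor drug with five library-drug doses (not always all listed) in √10 steps. After 5 days, nuclei were stained in a one-step fixation (final 0.05% Triton X-100, 1% formaldehyde, 1 ug/ml Hoechst) and counted on 4× images, and relative viability is the treated-to-vehicle nuclei ratio, as the median of duplicate plates.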

Compound in the experiment “CAP-232 + OSI-027”: C[C@H]([C@@H](C(=O)N)NC(=O)[C@@H]1CSSC[C@@H](C(=O)N[C@H](C(=O)N[C@@H](C(=O)N[C@H](C(=O)N1)CCCCN)CC2=CNC3=CC=CC=C32)CC4=CC=C(C=C4)O)NC(=O)[C@@H](CC5=CC=CC=C5)N)O [CAP-232] + COc1cccc2cc(-c3nc([C@H]4CC[C@H](C(=O)O)CC4)n4ncnc(N)c34)[nH]c12 [OSI-027] (partner 0.5 µM)
The method in brief: as §1

Compound in the experiment “CAP-232 + Crizotinib”: C[C@H]([C@@H](C(=O)N)NC(=O)[C@@H]1CSSC[C@@H](C(=O)N[C@H](C(=O)N[C@@H](C(=O)N[C@H](C(=O)N1)CCCCN)CC2=CNC3=CC=CC=C32)CC4=CC=C(C=C4)O)NC(=O)[C@@H](CC5=CC=CC=C5)N)O [CAP-232] + C[C@@H](Oc1cc(-c2cnn(C3CCNCC3)c2)cnc1N)c1c(Cl)ccc(F)c1Cl [Crizotinib] (partner 1 µM)
The method in brief:
as §1

Compound in the experiment “CAP-232 + Pemetrexed”: C[C@H]([C@@H](C(=O)N)NC(=O)[C@@H]1CSSC[C@@H](C(=O)N[C@H](C(=O)N[C@@H](C(=O)N[C@H](C(=O)N1)CCCCN)CC2=CNC3=CC=CC=C32)CC4=CC=C(C=C4)O)NC(=O)[C@@H](CC5=CC=CC=C5)N)O [CAP-232] + Nc1nc2[nH]cc(CCc3ccc(C(=O)N[C@@H](CCC(=O)O)C(=O)O)cc3)c2c(=O)[nH]1 [Pemetrexed] (partner 0.2 µM)
The essentials: as §1

Compound in the experiment “CAP-232 + Decitabine”: C[C@H]([C@@H](C(=O)N)NC(=O)[C@@H]1CSSC[C@@H](C(=O)N[C@H](C(=O)N[C@@H](C(=O)N[C@H](C(=O)N1)CCCCN)CC2=CNC3=CC=CC=C32)CC4=CC=C(C=C4)O)NC(=O)[C@@H](CC5=CC=CC=C5)N)O [CAP-232] + Nc1ncn([C@H]2C[C@H](O)[C@@H](CO)O2)c(=O)n1 [Decitabine] (partner 2 µM)
The essentials: as §1

For the cell line NCI-H3122, the relative viability with CAP-232 + Bortezomib (first compound 0.4 µM) was found to be 1.01; with CAP-232 + Bortezomib (first compound 1.265 µM), 1.05; with CAP-232 + Bortezomib (first compound 4 µM), 0.896; with CAP-232 + Bortezomib (first compound 12.65 µM), 1; in the experiment with CAP-232 + OSI-027 (first compound 0.4 µM), 0.629; in the experiment with CAP-232 + OSI-027 (first compound 1.265 µM), 1.01. In addition, the relative viability with CAP-232 + OSI-027 (first compound 4 µM) came to 1.07; with CAP-232 + OSI-027 (first compound 12.65 µM), 0.474; with CAP-232 + Crizotinib (first compound 0.4 µM), 0.274; with CAP-232 + Crizotinib (first compound 1.265 µM), 0.313; with CAP-232 + Crizotinib (first compound 4 µM) it was 0.308; in the experiment with CAP-232 + Crizotinib (first compound 12.65 µM), 0.277. The relative viability in the experiment with CAP-232 + Pemetrexed (first compound 0.4 µM) was 0.2; with CAP-232 + Pemetrexed (first compound 1.265 µM) it was 0.226; with CAP-232 + Pemetrexed (first compound 4 µM), 0.201; with CAP-232 + Pemetrexed (first compound 12.65 µM), 0.194; with CAP-232 + Decitabine (first compound 0.4 µM), 0.392; in the experiment with CAP-232 + Decitabine (first compound 1.265 µM), 0.364. Besides, the relative viability in the experiment with CAP-232 + Decitabine (first compound 4 µM) is 0.458; in the experiment with CAP-232 + Decitabine (first compound 12.65 µM), 0.426.

PC-3 [JPC-3]: the relative viability with CAP-232 + Bortezomib (first compound 0.4 µM) came out at 0.939; with CAP-232 + Bortezomib (first compound 1.265 µM) it was 0.855; with CAP-232 + Bortezomib (first compound 4 µM) it was 0.734; with CAP-232 + Bortezomib (first compound 12.65 µM) it was 0.788; with CAP-232 + OSI-027 (first compound 0.4 µM), 0.853; with CAP-232 + OSI-027 (first compound 1.265 µM) it was 0.794. In addition, the relative viability is 0.796 with CAP-232 + OSI-027 (first compound 4 µM); 0.73 in the experiment with CAP-232 + OSI-027 (first compound 12.65 µM); 1.01 with CAP-232 + Crizotinib (first compound 0.4 µM); 1.02 with CAP-232 + Crizotinib (first compound 1.265 µM); 0.966 with CAP-232 + Crizotinib (first compound 4 µM); 0.985 with CAP-232 + Crizotinib (first compound 12.65 µM). Besides, the relative viability in the experiment with CAP-232 + Pemetrexed (first compound 0.4 µM) is 1.63; with CAP-232 + Pemetrexed (first compound 1.265 µM), 1.05; in the experiment with CAP-232 + Pemetrexed (first compound 4 µM), 0.992; with CAP-232 + Pemetrexed (first compound 12.65 µM), 0.888; in the experiment with CAP-232 + Decitabine (first compound 0.4 µM) it was 0.738; with CAP-232 + Decitabine (first compound 1.265 µM), 0.895. In addition, the results for the relative viability in the experiment with CAP-232 + Decitabine (first compound 4 µM) and with CAP-232 + Decitabine (first compound 12.65 µM) were 0.821 and 0.864, respectively.

For PC-14, the relative viability with CAP-232 + Bortezomib (first compound 0.4 µM) was 0.931; in the experiment with CAP-232 + Bortezomib (first compound 1.265 µM), 0.817; in the experiment with CAP-232 + Bortezomib (first compound 4 µM), 1.07; with CAP-232 + Bortezomib (first compound 12.65 µM), 0.821; in the experiment with CAP-232 + OSI-027 (first compound 0.4 µM), 0.8; in the experiment with CAP-232 + OSI-027 (first compound 1.265 µM) it was 0.848. Also, the relative viability was found to be 1.08 with CAP-232 + OSI-027 (first compound 4 µM); 0.397 with CAP-232 + OSI-027 (first compound 12.65 µM); 1.02 with CAP-232 + Crizotinib (first compound 0.4 µM); 0.861 in the experiment with CAP-232 + Crizotinib (first compound 1.265 µM); 0.933 with CAP-232 + Crizotinib (first compound 4 µM); 0.89 with CAP-232 + Crizotinib (first compound 12.65 µM). Besides, the relative viability with CAP-232 + Pemetrexed (first compound 0.4 µM) was determined as 0.121; in the experiment with CAP-232 + Pemetrexed (first compound 1.265 µM), 0.123; with CAP-232 + Pemetrexed (first compound 4 µM), 0.137; with CAP-232 + Pemetrexed (first compound 12.65 µM) it was 0.127; in the experiment with CAP-232 + Decitabine (first compound 0.4 µM), 0.215; with CAP-232 + Decitabine (first compound 1.265 µM), 0.191. The relative viability was 0.205 with CAP-232 + Decitabine (first compound 4 µM) and 0.151 in the experiment with CAP-232 + Decitabine (first compound 12.65 µM).
